We go through 5 molecules from patent publication US20250066380A1, “NOVEL FURANO-NAPHTHOQUINONE AND NOVEL PYRAZINONE COMPOUNDS FROM AMYCOLATOPSIS AND ACTIVITIES THEREOF” (COUNCIL OF SCIENTIFIC AND INDUSTRIAL RESEARCH (AN INDIAN …, priority 2022, published 2025).

In assay [1] the test system is resistant clinical bacterial strains. The assay can be described thus: MIC, resistant clinical bacterial strains. The assay is classed as cell-based, MRSA (Methicillin resistant S.aureus). As for the experimental part: (§1) The MICs of the purified compounds were done according to CLSI guidelines using Mueller Hinton broth (Hi media) against panel of six Gram positive bacteria S.aureus, S.epidermidis, B.cereus, B.subtilis, M.luteus and L.monocytogenes, two Gram negative bacteria E.coli and P.aeruginosa, and four MRSA (Methicillin resistant S.aureus) clinical strain. The stock solution of compounds were made at 10 mg/ml in DMSO. The test compounds (highest concentration 128 μg/ml) were serially diluted in 50 μl of Mueller Hinton broth and 50 μl of bacterial suspension were added to reach the final desired cell density of 5×10^5 CFU ml^−1 in each well of 96 well microtiter plate except the media control. The medium, untreated culture, DMSO, ampicillin and kanamycin were used as controls. […] The MICs were defined as the lowest concentration that inhibited visible growth of bacteria.

Assay [2] has as its system MDA-MB-231, A549 and HeLa. Description: MTT cell viability assay, tested cancer cell lines. The assay is classed as cell-based. As for the experimental part:
(§2) MTT assay was used for the study of cell viability, which measured cellular metabolic activity based on the ability of nicotinamide adenine dinucleotide phosphate (NADPH) dependent oxidoreductase enzymes to reduce the yellow tetrazolium salt 3-[4,5-dimethylthiazole-2-yl]-2,5-diphenyltetrazolium bromide (MTT) to purple formazan crystals. The cell lines used for the study were A549 (lung cancer), HeLa (Cervical cancer) and MDA MB-231 (Breast cancer), which were seeded with a density of 10,000 cells/well into 96-well plates and incubated at 37° C. with 5% CO2 for 20 hours. The compounds with different concentrations were used to treat the cells for 24 hours. The medium was replaced with 100 μL of MTT solution (0.5 mg/mL in DMEM) and then incubated for 4 h at 37° C. in dark. Subsequently, MTT solution was removed and the formazan crystals were solubilized by addition of 100 μl DMSO. The optical density was measured at 570 nm by a Biotek synergy H1 microplate reader.

Another assay concerns MRSA_9B. Description: MIC, CLSI broth microdilution, MRSA clinical strain. The format is cell-based, Methicillin resistant S.aureus. Conditions: Mueller Hinton broth, 18 hours at 37° C., highest concentration 128 μg/ml. On the procedure:
as §1

The test system of a further assay is MRSA_10B. The assay is described as above. The format is cell-based, Methicillin resistant S.aureus. To be noted: Mueller Hinton broth, 18 hours at 37° C., highest concentration 128 μg/ml. On the procedure: as §1
A further assay deals with MRSA_6B. Described as above. The format is cell-based, Methicillin resistant S.aureus. Conditions: Mueller Hinton broth, 18 hours at 37° C., highest concentration 128 μg/ml. As for the experimental part: as §1
The next assay deals with MRSA_3B. The description is as above. The format is cell-based, Methicillin resistant S.aureus. To be noted: Mueller Hinton broth, 18 hours at 37° C., highest concentration 128 μg/ml. As for the experimental part: as §1
The subject of assay [3] is Mycobacterium smegmatis ATCC 607. Description: MIC, Middlebrook 7H9 medium. The assay is classed as cell-based. To be noted: for MIC: Middlebrook 7H9 medium, 48 hours at 37° C., highest concentration 128 μg/ml.
For the next assay, the system named is HeLa (Cervical cancer). The assay can be described thus: MTT cell viability assay. To be noted: Homo sapiens, 24 hours treatment. The assay is classed as cell-based. On the procedure: as §2
In the next assay the test system is A549 (lung cancer). Description: MTT cell viability assay. The assay is classed as cell-based. Conditions: Homo sapiens, A549, 24 hours treatment. As for the experimental part: as §2
For assay [4], the system named is MDA MB-231 (Breast cancer). The assay can be described thus: MTT cell viability assay. The format is cell-based. To be noted: Homo sapiens, MDA-MB-231, 24 hours treatment. On the procedure: as §2
Assay [5] relates to blood-stage Plasmodium falciparum (3D7 strain). Description: Antimalarial activity, SYBR green staining-based parasitemia determination. The format is cell-based. Conditions: P. falciparum 3D7. As for the experimental part:
The antimalarial activity was carried out on blood-stage Plasmodium falciparum (3D7 strain) with various concentrations ranging from 10 μM to 0.01 μM by 5 SYBR green staining-based parasitemia determination. Parasite cultures were incubated with the test compounds for 60 h under optimal growth conditions, following which the cells were lysed with 0.01% Triton X and stained with SYBR Green I nucleic acid stain (Thermo Fisher Scientific) to estimate parasite growth and inhibition. Fluorescence readings were obtained with a GloMax plate reader (Promega) after 15 min incubation in the dark and raw fluorescence readings were processed. The % growth inhibition values were estimated from comparisons between test and control samples.

In a further assay the test system is Gram-positive bacteria. Description: MIC, panel of Gram positive bacteria. The assay is classed as cell-based. As for the experimental part: as §1
Assay [6] concerns Micrococcus luteus ATCC 9341. The assay can be described thus: MIC, CLSI broth microdilution. To be noted: Mueller Hinton broth, 18 hours at 37° C., highest concentration 128 μg/ml. The format is cell-based. On the procedure:
as §1

The subject of assay [7] is Bacillus cereus ATCC 11778. The assay can be described thus: MIC, CLSI broth microdilution. The format is cell-based. Conditions: Mueller Hinton broth, 18 hours at 37° C., highest concentration 128 μg/ml. As for the experimental part:
as §1

In assay [8] the test system is Listeria monocytogenes ATCC 19111. Description: MIC, CLSI broth microdilution. The format is cell-based. Conditions: Mueller Hinton broth, 18 hours at 37° C., highest concentration 128 μg/ml. As for the experimental part:
as §1

Assay [9] has as its system Staphylococcus aureus ATCC 9144. Description: MIC, CLSI broth microdilution. The assay is classed as cell-based. Conditions: Mueller Hinton broth, 18 hours at 37° C., highest concentration 128 μg/ml. On the procedure:
as §1

The test system of assay [10] is Bacillus subtilis ATCC 6633. Description: MIC, CLSI broth microdilution. The assay is classed as cell-based. Conditions: Mueller Hinton broth, 18 hours at 37° C., highest concentration 128 μg/ml. On the procedure:
as §1

For assay [11], the system named is Staphylococcus epidermidis ATCC. Description: MIC, CLSI broth microdilution. The assay is classed as cell-based. To be noted: Mueller Hinton broth, 18 hours at 37° C., highest concentration 128 μg/ml. As for the experimental part:
as §1

For assay [12], the system named is Escherichia coli ATCC 8739. The assay can be described thus: MIC, CLSI broth microdilution. The assay is classed as cell-based. Conditions: ATCC8739, Mueller Hinton broth, 18 hours at 37° C., highest concentration 128 μg/ml. On the procedure: as §1
Assay [13] deals with Pseudomonas aeruginosa ATCC 9027. Description: MIC, CLSI broth microdilution. The assay is classed as cell-based. To be noted: Mueller Hinton broth, 18 hours at 37° C., highest concentration 128 μg/ml. As for the experimental part:
as §1

Setting [14] is: Staphylococcus aureus, read-out: MIC.
The mark [15] stands for this setting: Mycolicibacterium smegmatis, ATCC607, read-out: MIC.
Where [16] appears, read: Micrococcus luteus, ATCC9341, read-out: MIC.
The mark [17] stands for this setting: Bacillus cereus, ATCC11778, read-out: MIC.
The mark [18] stands for this setting: Listeria monocytogenes, ATCC19111, read-out: MIC.
Setting [19] is: Staphylococcus aureus, ATCC9144, read-out: MIC.
[20] abbreviates: Bacillus subtilis, ATCC6633, read-out: MIC.
Where [21] appears, read: Staphylococcus epidermidis, read-out: MIC.

Converted amounts (≈) assume the structure as drawn. Read-outs that look alike come from different tables or passages of the source.

Turning to `CC1OC2OC3C4=C(OC3(C)C12O)C(=O)c1c(O)cccc1C4=O` (stereo not drawn) [Compound C-1], in assay [1], the “activity against the resistant clinical bacterial strains” value is given as “active”. Moreover, the half-maximal inhibitory concentration (IC50) was 1.79 to 8.82 µg/mL in assay [2] (read-out: IC50 value range over the tested cancer cell lines), 3.53 µg/mL with HeLa (Cervical cancer), 2.14 µg/mL in the assay with A549 (lung cancer) and 1.79 µg/mL in assay [4]. Moreover, the minimum inhibitory concentration (MIC) worked out at 4 µg/mL (≈ 12.1 µM) in the assay with MRSA_9B (setting [14]); 4 µg/mL (≈ 12.1 µM) in the assay with MRSA_10B (setting [14]); 4 µg/mL (≈ 12.1 µM) in the assay with MRSA_6B (setting [14]); 4 µg/mL (≈ 12.1 µM) in the assay on MRSA_3B (setting [14]); 64 µg/mL (≈ 194 µM) in assay [3] (setting [15]); 8 µg/mL (≈ 24.2 µM) in [6] (setting [16]). The minimum inhibitory concentration (MIC) in [7] (setting [17]) is 8 µg/mL (≈ 24.2 µM); in assay [8] (setting [18]), 2 µg/mL (≈ 6.06 µM); in assay [9] (setting [19]) it was 2 µg/mL (≈ 6.06 µM); in assay [10] (setting [20]), 4 µg/mL (≈ 12.1 µM); in [11] (setting [21]) it was 2 µg/mL (≈ 6.06 µM). Further, the “activity against Mycobacterium smegmatis” value in assay [3] is “weakly active”. The EC50 in assay [5] (Plasmodium falciparum, read-out: antimalarial activity (bound)) was below 1000 nM. Further, in the assay with Gram-positive bacteria, the “antibacterial activity against Gram-positive bacteria” value (from here on “antibacterial activity”) is “good antibacterial activity”.

Take `CC(C)Cc1nc(C(C)C(=O)O)c(C(C)C)n(O)c1=O` (stereo not drawn) [Compound C-4]: the “anticancer activity” value in assay [2] is recorded as “moderate activity”. The MIC came out at 128 µg/mL (≈ 453 µM) with MRSA_9B (setting [14]); 128 µg/mL (≈ 453 µM) in the assay on MRSA_10B (setting [14]); 128 µg/mL (≈ 453 µM) in the assay on MRSA_6B (setting [14]); 128 µg/mL (≈ 453 µM) in the assay with MRSA_3B (setting [14]); 64 µg/mL (≈ 227 µM) in assay [6] (setting [16]); 128 µg/mL (≈ 453 µM) in assay [7] (setting [17]). The MIC in [8] (setting [18]) is 128 µg/mL (≈ 453 µM); in [9] (setting [19]) it was 128 µg/mL (≈ 453 µM); in [10] (setting [20]) it was 128 µg/mL (≈ 453 µM); in assay [11] (setting [21]), 64 µg/mL (≈ 227 µM). For the same molecule, the IC50 in the assay on HeLa (Cervical cancer) came to 15.4 µg/mL; in the assay with A549 (lung cancer), 40.2 µg/mL; in [4], 14.1 µg/mL. Further, in assay [5], the “antimalarial activity” value was “moderately active”. The “antibacterial activity” value with Gram-positive bacteria is on record as “weakly active”.

Turning to `CC1OC2OC3C(C)(OC4(O)C(=O)c5c(O)cccc5C(=O)C34O)C12O` (stereo not drawn) [Compound C-2], in assay [2], the “anticancer activity” value is reported as “moderate activity”. The values for the half-inhibitory concentration (IC50) (with HeLa (Cervical cancer); in the assay with A549 (lung cancer); in assay [4]) were 36 µg/mL, 44.9 µg/mL and 19.1 µg/mL, respectively. Besides, the “antimalarial activity” value in assay [5] is listed as “moderately active”. Moreover, in the assay on Gram-positive bacteria, the “antibacterial activity” value is given as “weakly active”.

Consider `NC[C@H]1O[C@H](O[C@H]2[C@H](O)[C@@H](O[C@H]3O[C@H](CO)[C@@H](O)[C@H](N)[C@H]3O)[C@H](N)C[C@@H]2N)[C@H](O)[C@@H](O)[C@@H]1O` [Kanamycin, kanamycin, reference compound], for which the MIC in the assay on MRSA_9B (setting [14]) was found to be 128 µg/mL (≈ 264 µM); in [3] (setting [15]), 0.25 µg/mL (≈ 0.516 µM); in assay [12], 8 µg/mL (≈ 16.5 µM); in assay [6] (setting [16]), 8 µg/mL (≈ 16.5 µM); in assay [7] (setting [17]), 2 µg/mL (≈ 4.13 µM); in assay [13] (Pseudomonas aeruginosa, ATCC9027, read-out: MIC), 8 µg/mL (≈ 16.5 µM). The MIC was 1 µg/mL (≈ 2.06 µM) in assay [8] (setting [18]), 8 µg/mL (≈ 16.5 µM) in assay [9] (setting [19]), 0.5 µg/mL (≈ 1.03 µM) in assay [10] (setting [20]) and 1 µg/mL (≈ 2.06 µM) in assay [11] (setting [21]).

Regarding `CC1(C)S[C@@H]2[C@H](NC(=O)[C@H](N)c3ccccc3)C(=O)N2[C@H]1C(=O)O` [Ampicilli, ampicillin, reference compound], the MIC in the assay with MRSA_9B was 16 µg/mL (≈ 45.8 µM); in the assay on MRSA_10B, 4 µg/mL (≈ 11.4 µM); against MRSA_6B, 8 µg/mL (≈ 22.9 µM); in the assay on MRSA_3B it was 8 µg/mL (≈ 22.9 µM); in assay [3] it was 64 µg/mL (≈ 183 µM); in assay [6], 0.03 µg/mL (≈ 0.0859 µM). Also, the minimum inhibitory concentration (MIC) in [7] was found to be 16 µg/mL (≈ 45.8 µM); in [13] it was 2 µg/mL (≈ 5.72 µM); in assay [8], 0.03 µg/mL (≈ 0.0859 µM); in [9], 0.03 µg/mL (≈ 0.0859 µM); in [10] it was 0.03 µg/mL (≈ 0.0859 µM); in assay [11] it was 1 µg/mL (≈ 2.86 µM).
